Data published in US6458781B1, “Substituted diarylalkyl amides as calcium channel antagonists” (priority 1998, dated 2002).
Where a name gives a salt, the structure may show the parent alone. Read-outs that look alike come from different tables or passages of the source.

What was measured:
[1] = target: T1, N-type calcium channels in IMR-32 cells (Homo sapiens, UniProt Q00975); assay: N-type Ca2+ channel blocking potency in IMR-32 cells using Indo-1; type: cell-based; conditions: for IC50: IMR-32 cells; for inhibition at 1 µM / inhibition at 10 µM: IMR-32, IMR-32 cells; for inhibition at 1 µM: read-out: IMR32 % blockage at 1 μM; for inhibition at 10 µM: read-out: IMR32 % blockage at 10 μM
T1 construct: host or cells: IMR-32 cells differentiated with dibutyryl cAMP and bromodeoxyuridine
Experimental: Measurement of N-type Ca^2+ Channel Blocking Potencies of Compounds in IMR-32 Cells Using the Fluorescent Ca^2+ Indicator Indo-1
IMR-32 cells are a human tumoral cell line of neural origin. […] Calcium flux into these cells may be induced by stimulation with elevated potassium concentrations. The L-channel component of calcium flux may be blocked by adding 5 μM nitrendipine. The remaining component of calcium entry into the IMR-32 cells is due to calcium flux through N-type calcium channels. Intracellular calcium concentrations are measured using the fluorescent calcium indicator Indo-1. The effect of drug concentration on calcium uptake is studied.
The IMR-32 cell line was obtained from the American Type Culture Collection (Rockville, Md.). Cells were grown in Eagle's Minimum Essential Medium with Earle's salts supplemented with 10% fetal bovine serum, 2 mM L-Gln and antibiotic/antimycotic mixture (Gibco). At approximately 80% confluency, differentiation was induced by the addition of 1 mM dibutyryl cAMP and 2.5 μM bromodeoxyuridine to the medium. After 7 to 13 days of differentiation, cells were detached using 0.5 mM EDTA and loaded with 5 μM Indo-1 acetoxymethyl ester (Molecular Probes, Eugene, Oreg.) at 30° C. for 45 minutes. Loaded cells were washed twice, resuspended (˜10^7 cells/mL) in assay buffer (10 mM HEPES/Tris pH 7.4 in Hank's Balanced Salt Solution without bicarbonate or phenol red containing 0.5% bovine serum albumin) and kept on ice until use. Fluorescence measurements were carried out in a Photon Technology International (PTI, South Brunswick, N.J.) Model RF-F3004 spectrofluorometer with dual emission monochromators using excitation at 350 nm and emission at 400 and 490 nm. The instrument was equipped with a thermostated cuvette holder with stirring capabilities as well as with a computer-controlled pump which allowed for reagent addition during measurement. Instrument control and data collection was done by PTI's OSCAR software running on an IBM compatible computer. Different concentrations of the test compounds (60 μL in dimethyl sulfoxide) were added to 5.94 mL of assay buffer containing approximately 3×10^6 loaded cells, and 5 μM Nitrendipine (in 30 μL EtOH) to block L-type Ca^2+ channels. Samples were incubated for 10 minutes at 30° C. and the aliquot into three 10×10 mm disposable acrylic cuvettes. Emission signals at 400 and 490 nm were acquired from each cuvette at 30° C. for 50 seconds. At 20 seconds after the start of reading, cells were depolarized by the addition of 160 μL of stimulation solution (1 M KCl, 68 mM CaCl2) to the cuvette via the computer-controlled pump. Ratio of dual emission signals (400/490 nm), which is proportional to intracellular Ca^2+ concentration, was plotted against time, and the difference between maximal response after stimulation and basal value (before stimulation) was determined. Values obtained in this way were plotted as a function of drug concentration. IC50 values of test compounds were calculated by fitting a four-parameter logistic function to the data using the least squares method.

[2] = target: T2, L-type calcium channels in A10 cells (Rattus norvegicus, UniProt P22002); assay: L-type Ca2+ channel blocking potency in A10 cells (FLIPR); type: cell-based; conditions: read-out: FLPA10 IC50
T2 construct: which endogenously expresses L-type calcium channels; host or cells: A10 rat embryonic thoracic aorta smooth muscle cells
Experimental: Measurement of L-type Ca^2+ Channel Blocking Potencies of Compounds in A10 Cells
Calcium flux through voltage-sensitive calcium channels was assessed by time-resolved monitoring of the fluorescence of pre-loaded calcium-sensitive dyes using FLIPR, a fluorescent image plate reader (Molecular Devices Co.). The A10 smooth muscle cell line derived from embryonic thoracic aorta of the DBIX rat (ATCC, CRL-1476) which endogenously expresses L-type calcium channels. The growth media for A10 cells was Ham's F12/DME high glucose (Irvine Scientific, 9052), supplemented with 20% fetal bovine serum (HyClone Labs, A-1115-L), and 1% each of L-glutamine and antibiotic-antimycotic (same source as above).
Cells were grown to confluency and replated on black-sided 96-well plates (Costar, 3603) for use in FLIPR. Two days after replating, growth media was removed and cells were loaded at 37° C. with 100 μL media containing 1 μM Oregon Green 488 Bapta-1 dye (Molecular Probes, O-6807) for 1 to 3 hours. The dye-containing media was then washed away with buffer (composition in mM: 1.25 CaCl2, 1.2 MgSO4, 11 glucose, 10 HEPES, 3.0 KCl, 137.0 NaCl, pH 7.4 with Tris base) in a Denley Cellwash (Labsystems, CW018B). The residual buffer volume was adjusted to 50 μL. A 5 minute drug-pre-incubation period at 35° C. was initiated when 50 μL of drug-containing buffer was pipetted into the cell plate with the 96-well pipettor integrated in the FLIPR apparatus. Fluorescent counts were monitored at 20 second intervals for 360 seconds, beginning 60 seconds prior to the delivery of drug-containing buffer. Following drug addition, 100 μL aliquots of a high K^+, depolarizing stimulus (composition in mM: 1.25 CaCl2, 1.2 MgSO4, 11 glucose, 10 HEPES, 140.0 KCl, pH 7.4 with Tris base) were added to each well, and fluorescence was monitored at 1 second intervals for 120 seconds beginning 10 seconds prior to the stimulus addition. CCD camera exposure time was 0.4 seconds, laser excitation was at 488 nm with a power of 0.2-0.5W, and a 510 to 560 nm bandpass interference filter preceded the camera.
Data was analyzed as a summation of fluorescent counts above basal during the stimulation period (an approximation of area under the curve), after normalizing the data with a spatial uniformity correction (for variations in laser illumination and cell density) and a negative control correction (zero calcium increase defined as the fluorescence reading in the presence of saturating pharmacologic block of the respective calcium channel). Drug effects were expressed as percent inhibition of fluorescence from an average of 8 K^+-stimulated wells which were pre-treated in the drug incubation period with buffer only. In the A10 cells, the pharmacologic agent used to define zero calcium influx was nitrendipine (RBI, N-144) at a final concentration of 1.0×10^−6 M.

[3] = 5 μM nitrendipine present, read-out: IMR32 IC50
[4] = estimated from two data points, read-out: IMR32 IC50 (estimated IC50 values based on two data points)

T2 sequence (P22002 whole entry): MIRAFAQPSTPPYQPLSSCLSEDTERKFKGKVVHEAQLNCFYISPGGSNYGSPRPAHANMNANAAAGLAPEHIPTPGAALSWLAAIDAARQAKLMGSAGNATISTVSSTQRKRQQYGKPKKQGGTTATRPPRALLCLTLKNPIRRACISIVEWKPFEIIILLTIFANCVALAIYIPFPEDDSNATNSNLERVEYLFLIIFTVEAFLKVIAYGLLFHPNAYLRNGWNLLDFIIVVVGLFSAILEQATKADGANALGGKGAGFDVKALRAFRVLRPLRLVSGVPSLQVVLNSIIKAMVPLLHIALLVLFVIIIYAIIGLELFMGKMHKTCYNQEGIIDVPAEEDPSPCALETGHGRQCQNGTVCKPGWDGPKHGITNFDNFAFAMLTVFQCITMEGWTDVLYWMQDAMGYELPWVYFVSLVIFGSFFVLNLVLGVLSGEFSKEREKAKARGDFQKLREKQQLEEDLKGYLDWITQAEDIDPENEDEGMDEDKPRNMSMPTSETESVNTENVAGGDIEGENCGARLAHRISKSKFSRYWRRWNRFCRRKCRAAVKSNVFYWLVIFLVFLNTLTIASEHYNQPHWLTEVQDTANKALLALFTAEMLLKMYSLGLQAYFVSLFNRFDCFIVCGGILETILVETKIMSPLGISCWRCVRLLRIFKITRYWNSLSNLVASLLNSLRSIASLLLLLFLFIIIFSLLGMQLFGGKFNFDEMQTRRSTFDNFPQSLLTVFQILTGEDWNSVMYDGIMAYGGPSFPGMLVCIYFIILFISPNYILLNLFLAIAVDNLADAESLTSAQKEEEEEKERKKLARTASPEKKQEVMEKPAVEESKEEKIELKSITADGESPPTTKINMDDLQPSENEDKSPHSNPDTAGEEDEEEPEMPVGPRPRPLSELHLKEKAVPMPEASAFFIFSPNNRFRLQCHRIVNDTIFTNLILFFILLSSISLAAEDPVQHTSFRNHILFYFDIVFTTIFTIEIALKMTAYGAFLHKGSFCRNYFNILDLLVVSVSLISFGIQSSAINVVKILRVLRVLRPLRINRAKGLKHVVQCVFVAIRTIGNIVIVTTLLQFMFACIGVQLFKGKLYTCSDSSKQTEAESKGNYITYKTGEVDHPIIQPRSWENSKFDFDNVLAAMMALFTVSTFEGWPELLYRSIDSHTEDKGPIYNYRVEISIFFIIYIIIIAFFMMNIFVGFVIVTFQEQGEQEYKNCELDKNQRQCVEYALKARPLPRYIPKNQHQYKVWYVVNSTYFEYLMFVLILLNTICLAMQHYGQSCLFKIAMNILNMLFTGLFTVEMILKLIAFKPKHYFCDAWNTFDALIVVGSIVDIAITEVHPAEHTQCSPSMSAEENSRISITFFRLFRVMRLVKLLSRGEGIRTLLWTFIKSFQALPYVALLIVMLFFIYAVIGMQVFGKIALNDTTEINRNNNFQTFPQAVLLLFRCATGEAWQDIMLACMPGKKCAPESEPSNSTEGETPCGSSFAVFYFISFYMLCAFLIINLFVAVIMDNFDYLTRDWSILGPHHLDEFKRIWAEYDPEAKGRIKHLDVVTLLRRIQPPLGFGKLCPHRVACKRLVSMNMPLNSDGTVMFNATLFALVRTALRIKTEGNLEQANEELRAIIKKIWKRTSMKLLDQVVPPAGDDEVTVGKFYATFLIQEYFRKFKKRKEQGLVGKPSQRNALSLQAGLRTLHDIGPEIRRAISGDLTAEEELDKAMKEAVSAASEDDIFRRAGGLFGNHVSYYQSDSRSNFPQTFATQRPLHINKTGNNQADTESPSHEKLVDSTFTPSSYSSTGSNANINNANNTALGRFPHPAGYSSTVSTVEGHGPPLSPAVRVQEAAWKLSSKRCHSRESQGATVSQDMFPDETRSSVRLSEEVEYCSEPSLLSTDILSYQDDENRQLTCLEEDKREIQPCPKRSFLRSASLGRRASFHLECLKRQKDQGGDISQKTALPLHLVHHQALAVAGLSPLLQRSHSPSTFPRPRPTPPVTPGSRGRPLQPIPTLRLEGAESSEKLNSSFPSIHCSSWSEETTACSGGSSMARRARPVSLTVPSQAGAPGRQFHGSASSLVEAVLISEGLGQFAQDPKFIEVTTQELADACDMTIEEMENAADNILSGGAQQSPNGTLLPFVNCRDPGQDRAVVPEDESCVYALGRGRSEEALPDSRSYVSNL
T2 sequence (P54290 25-944 partner limits assumed): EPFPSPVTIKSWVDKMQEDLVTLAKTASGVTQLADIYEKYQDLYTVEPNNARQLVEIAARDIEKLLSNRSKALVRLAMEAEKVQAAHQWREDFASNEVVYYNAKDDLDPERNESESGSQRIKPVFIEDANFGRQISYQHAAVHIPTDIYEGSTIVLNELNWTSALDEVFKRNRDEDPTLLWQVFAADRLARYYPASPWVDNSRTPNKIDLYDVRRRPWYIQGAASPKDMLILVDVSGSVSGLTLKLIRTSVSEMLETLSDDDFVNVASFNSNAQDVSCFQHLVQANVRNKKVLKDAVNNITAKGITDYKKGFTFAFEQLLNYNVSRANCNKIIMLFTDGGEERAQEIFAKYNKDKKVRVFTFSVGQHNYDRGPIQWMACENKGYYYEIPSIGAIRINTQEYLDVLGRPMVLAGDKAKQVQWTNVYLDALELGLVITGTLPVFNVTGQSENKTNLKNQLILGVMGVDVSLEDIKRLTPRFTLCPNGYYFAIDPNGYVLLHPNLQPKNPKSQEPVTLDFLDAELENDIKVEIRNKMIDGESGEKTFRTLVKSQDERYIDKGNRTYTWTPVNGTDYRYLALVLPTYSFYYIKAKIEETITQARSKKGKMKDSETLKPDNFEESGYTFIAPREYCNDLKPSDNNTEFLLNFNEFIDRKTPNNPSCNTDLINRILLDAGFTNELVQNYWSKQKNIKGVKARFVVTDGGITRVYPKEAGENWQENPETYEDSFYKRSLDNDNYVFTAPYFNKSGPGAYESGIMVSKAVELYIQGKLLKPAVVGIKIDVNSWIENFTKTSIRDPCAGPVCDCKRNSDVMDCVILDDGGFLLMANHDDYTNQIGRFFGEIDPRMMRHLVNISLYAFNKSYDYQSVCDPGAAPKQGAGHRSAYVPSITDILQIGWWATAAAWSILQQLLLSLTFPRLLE
T2 sequence (P54290 945-1091 partner limits assumed): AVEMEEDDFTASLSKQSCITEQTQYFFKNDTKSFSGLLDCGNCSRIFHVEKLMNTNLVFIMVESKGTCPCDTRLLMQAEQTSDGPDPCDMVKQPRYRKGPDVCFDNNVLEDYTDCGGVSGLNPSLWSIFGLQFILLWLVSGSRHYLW
T2 sequence (P54287 whole entry partner): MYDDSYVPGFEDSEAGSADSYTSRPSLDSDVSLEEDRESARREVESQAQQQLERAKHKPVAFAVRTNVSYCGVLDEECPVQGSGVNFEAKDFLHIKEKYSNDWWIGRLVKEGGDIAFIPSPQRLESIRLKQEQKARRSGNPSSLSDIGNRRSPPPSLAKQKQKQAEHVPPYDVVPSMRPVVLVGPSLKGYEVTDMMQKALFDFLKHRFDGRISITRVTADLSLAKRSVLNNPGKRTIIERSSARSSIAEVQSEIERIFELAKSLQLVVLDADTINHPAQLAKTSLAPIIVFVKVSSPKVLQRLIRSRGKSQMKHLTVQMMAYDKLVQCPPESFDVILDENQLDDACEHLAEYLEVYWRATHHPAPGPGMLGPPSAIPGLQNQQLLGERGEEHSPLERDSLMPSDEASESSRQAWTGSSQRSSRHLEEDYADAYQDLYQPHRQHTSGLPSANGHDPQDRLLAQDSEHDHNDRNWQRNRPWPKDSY

| IC50 [1, 3] [nM] | IC50 [2] [nM] | melting point [°C] | inhibition at 1 µM [1] [%] | inhibition at 10 µM [1] [%] | IC50 [1, 4] [nM] | Compound |
| --- | --- | --- | --- | --- | --- | --- |
| 470 | 1800 | 66 to 86 | – | – | – | O=C(CNC(=O)N1CCCCCC1)N1CCN(C(c2ccc(F)cc2)c2ccc(F)cc2)CC1 [Example 32, (S)-Azepane-1-carboxylic acid (2-{4-[bis-(4-fluoro-phenyl)-methyl]-piperazin-1-yl}-2-oxo-ethyl)-amide] |
| – | 420 | 61 to 68 | 22 | 78 | – | CC(C)C[C@H](N)C(=O)N1CCN(C(c2ccc(F)cc2)c2ccc(F)cc2)CC1 [Example 53, (S)-2-Amino-1-{4-[bis-(4-fluoro-phenyl)-methyl]-piperazin-1-yl}-4-methyl-pentan-1-one] |
| – | 710 | 54 to 74 | – | – | 250 | CC(C)(C)OC(=O)N[C@@H](Cc1ccccc1)C(=O)N1CCN(C(c2ccc(F)cc2)c2ccc(F)cc2)CC1 [Example 51, (S)-(1-Benzyl-2-{4-[bis-(4-fluoro-phenyl)-methyl]-piperazin-1-yl}-2-oxo-ethyl)-carbamic acid tert-butyl ester] |
| – | 74 | 138 to 141 | – | – | 2000 | CC(C)C[C@H](NC(=O)N1CCN(c2ccccc2)CC1)C(=O)NCCCC(c1ccc(F)cc1)c1ccc(F)cc1 [Example 17, (S)-4-Phenyl-piperazine-1-carboxylic acid {1-[4,4-bis-(4-fluoro-phenyl)-butylcarbamoyl]-3-methyl-butyl}-amide] |
| 1800 | – | 144 to 145 | – | – | – | CC(C)C[C@H](NC(=O)N1CCCCCC1)C(=O)NCCC(c1ccccc1)c1ccccc1 [Example 5, (S)-Azepane-1-carboxylic acid [1-(3,3-diphenyl-propylcarbamoyl)-3-methyl-butyl]-amide] |
| – | 160 | 52 to 70 | 49 | 94 | – | CC(C)C[C@@H](C(=O)NCCCC(c1ccc(F)cc1)c1ccc(F)cc1)N1CCCCC1 [Example 22, (S)-4-Methyl-2-piperidin-1-yl-pentanoic acid [4,4-bis-(4-fluoro-phenyl)-butyl]-amide] |
| – | > 3000 | 139 to 181 | 16 | 37 | – | CC(C)CCN(CCC(C)C)[C@@H](Cc1ccccc1)C(=O)N1CCN(C(c2ccc(F)cc2)c2ccc(F)cc2)CC1.Cl [Example 56, (S)-1-{4-[Bis-(4-fluoro-phenyl)-methyl]-piperazin-1-yl}-2-[bis-(3-methyl-butyl)-amino]-3-phenyl-propan-1-one dihydrochloride] |
| – | 220 | 58 to 62 | 26 | 95 | – | COc1cc(CN[C@@H](CC(C)C)C(=O)N2CCN(C(c3ccc(F)cc3)c3ccc(F)cc3)CC2)cc(OC)c1OC [Example 60, (S)-1-{4-[Bis-(4-fluoro-phenyl)-methyl]-piperazin-1-yl}-4-methyl-2-(3,4,5-trimethoxy-benzylamino)-pentan-1-one] |
| 3300 | – | 194 to 195 | – | – | – | CC(C)C[C@H](NC(=O)N1CCCCCC1)C(=O)NCC(c1ccccc1)c1ccccc1 [Example 4, (S)-Azepane-1-carboxylic acid [1-(2,2-diphenyl-ethylcarbamoyl)-3-methyl-butyl]-amide] |
| 2600 | – | 181 to 182 | – | – | – | CC(C)C[C@H](NC(=O)N1CCCCCC1)C(=O)NCCCC1(c2ccccc2)C(=O)N(C)c2ccccc21 (stereo partly drawn) [Example 10, (S)-Azepane-1-carboxylic acid {3-methyl-1-[3-(1-methyl-2-oxo-3-phenyl-2,3-dihydro-1H-indol-3-yl)-propylcarbamoyl]-butyl}-amide] |
| 1300 | – | 50 to 55 | – | – | – | CC(C)C[C@H](NC(=O)OC(C)(C)C)C(=O)NCCCC(c1ccc(F)cc1)c1ccc(F)cc1 [Example 6, (S)-{1-[4,4-Bis-(4-fluoro-phenyl)-butylcarbamoyl]-3-methyl-butyl}-carbamic acid tert-butyl ester] |
| 4000 | – | 135 to 136 | – | – | – | CC(C)C[C@H](NC(=O)N1CCCCCC1)C(=O)NCc1nn(-c2ccccc2)c2ccccc12 [Example 11, (S)-Azepane-1-carboxylic acid {3-methyl-1-[(1-phenyl-1H-indazol-3-ylmethyl)-carbamoyl]-butyl}-amide] |
| – | > 3000 | 57 to 62 | – | – | – | CC(C)C[C@H](NCc1ccc(C(C)(C)C)cc1)C(=O)N1CCN(C(c2ccc(F)cc2)c2ccc(F)cc2)CC1 [Example 58, (S)-1-{4-[Bis-(4-fluoro-phenyl)-methyl]-piperazin-1-yl}-2-(4-tert-butyl-benzylamino)-4-methyl-pentan-1-one] |
| – | – | 75 to 92 | – | – | – | CC(C)C[C@@H](C(=O)NCCCC(c1ccc(F)cc1)c1ccc(F)cc1)N(C)C1CCOCC1 (as salt: hydrochloride) [Example 27, (S)-4-Methyl-2-[methyl-(tetrahydro-pyran-4-yl)-amino]-pentanoic acid [4,4-bis-(4-fluoro-phenyl)-butyl]-amide monohydrochloride] |

| Compound | IC50 [1, 3] [nM] | IC50 [2] [nM] | melting point [°C] | inhibition at 1 µM [1] [%] | inhibition at 10 µM [1] [%] | IC50 [1, 4] [nM] |
| --- | --- | --- | --- | --- | --- | --- |
| CC(C)C[C@H](NCc1ccc(OC(C)(C)C)cc1)C(=O)N1CCN(C(c2ccc(F)cc2)c2ccc(F)cc2)CC1 [Example 64, (S)-1-{4-[Bis-(4-fluoro-phenyl)-methyl]-piperazin-1-yl}-2-(4-tert-butoxy-benzylamino)-4-methyl-pentan-1-one] | – | 89 | 56 to 61 | – | – | – |
| CN[C@H](C(=O)NCCCC(c1ccc(F)cc1)c1ccc(F)cc1)C(C)C (as salt: hydrochloride) [Example 73, (S)-3-Methyl-2-methylamino-butanoic acid [4,4-bis-(4-fluorophenyl)-butyl]-amide monohydrochloride] | – | – | 85 to 90 | – | – | – |
